| SMILES | melting point [°C] |
| --- | --- |
| CC1(CO)Cc2nnc(-c3ccc(-c4cccc(Cl)c4)cc3Cl)n2CCS1 (stereo not shown) [Example 16, [3-(3,3′-Dichlorobiphenyl-4-yl)-8-methyl-5,6,8,9-tetrahydro[1,2,4]triazolo[4,3-d][1,4]thiazepin-8-yl]methanol] | 173 to 176 |
| CC1(CO)Cc2nnc(-c3ccc(-c4cccc(F)c4)cc3Cl)n2CCS1 (stereo not shown) [Example 15, [3-(3-Chloro-3′-fluorobiphenyl-4-yl)-8-methyl-5,6,8,9-tetrahydro[1,2,4]triazolo[4,3-d][1,4]thiazepin-8-yl]methanol] | 206 to 209 |
| Cc1ccc(-c2ccc(-c3nnc4n3CCSC(C)(CO)C4)c(Cl)c2)cc1 (stereo not shown) [Example 20, [3-(3-Chloro-4′-methylbiphenyl-4-yl)-8-methyl-5,6,8,9-tetrahydro[1,2,4]triazolo[4,3-d][1,4]thiazepin-8-yl]methanol] | 223 to 225 |
| CCc1ccccc1-c1nnc2n1CCSC(C)(C)C2 [Example 48, 3-(2-Ethylphenyl)-8,8-dimethyl-5,6,8,9-tetrahydro[1,2,4]triazolo[4,3-d][1,4]thiazepine] | 125 |
| CC1(CO)Cc2nnc(-c3ccc(-c4cc(F)cc(F)c4)cc3Cl)n2CCS1 (stereo not shown) [Example 27, [3-(3-Chloro-3′,5′-difluorobiphenyl-4-yl)-8-methyl-5,6,8,9-tetrahydro[1,2,4]triazolo[4,3-d][1,4]thiazepin-8-yl]methanol] | 260 to 265 |
| CC1(CO)Cc2nnc(-c3ccc(-c4ccc(F)cc4)cc3Cl)n2CCS1 (single isomer, unassigned; (+)) [Example 57, (+)-[3-(3-Chloro-4′-fluorobiphenyl-4-yl)-8-methyl-5,6,8,9-tetrahydro[1,2,4]triazolo[4,3-d][1,4]thiazepin-8-yl]methanol] | 211 to 214 |
| COc1ccccc1-c1nnc2n1CCSC(C)(C)C2 [Example 47, 8,8-Dimethyl-3-(2-methoxyphenyl)-5,6,8,9-tetrahydro[1,2,4]triazolo[4,3-d][1,4]thiazepine] | 141 to 143 |
| CC1(CO)Cc2nnc(-c3ccc(Oc4ccc(F)cc4)cc3Cl)n2CCS1 (stereo not shown) [Example 42, {3-[2-Chloro-4-(4-fluorophenoxy)phenyl]-8-methyl-5,6,8,9-tetrahydro[1,2,4]triazolo[4,3-d][1,4]thiazepin-8-yl}methanol] | 138 to 140 |
| CC1(CO)Cc2nnc(-c3ccc(-c4cc(Cl)ccc4F)cc3Cl)n2CCS1 (stereo not shown) [Example 29, [3-(3,5′-Dichloro-2′-fluorobiphenyl-4-yl)-8-methyl-5,6,8,9-tetrahydro[1,2,4]triazolo[4,3-d][1,4]thiazepin-8-yl]methanol] | 186 to 189 |
| CC1(CO)Cc2nnc(-c3ccc(-c4cccc(Cl)c4F)cc3Cl)n2CCS1 (stereo not shown) [Example 28, [3-(3,3′-Dichloro-2′-fluorobiphenyl-4-yl)-8-methyl-5,6,8,9-tetrahydro[1,2,4]triazolo[4,3-d][1,4]thiazepin-8-yl]methanol] | 156 to 160 |
| CC1(CO)Cc2nnc(-c3ccc(N4CCCC4)cc3Cl)n2CCS1 (stereo not shown) [Example 39, {3-[2-Chloro-4-(pyrrolidin-1-yl)phenyl]-8-methyl-5,6,8,9-tetrahydro[1,2,4]triazolo[4,3-d][1,4]thiazepin-8-yl}methanol] | 193 to 196 |
| Cc1ccccc1-c1nnc2n1CCSC(C)(C)C2 [Example 46, 8,8-Dimethyl-3-(2-methylphenyl)-5,6,8,9-tetrahydro[1,2,4]triazolo[4,3-d][1,4]thiazepine] | 106 to 107 |
| CC1(CO)Cc2nnc(-c3ccc(-c4ccc(F)c(Cl)c4)cc3Cl)n2CCS1 (stereo not shown) [Example 30, [3-(3,3′-Dichloro-4′-fluorobiphenyl-4-yl)-8-methyl-5,6,8,9-tetrahydro[1,2,4]triazolo[4,3-d][1,4]thiazepin-8-yl]methanol] | 235 to 239 |
| CCOc1ccccc1-c1nnc2n1CCSC(C)(C)C2 [Example 49, 3-(2-Ethoxyphenyl)-8,8-dimethyl-5,6,8,9-tetrahydro[1,2,4]triazolo[4,3-d][1,4]thiazepine] | 136 to 137 |
| COc1cc(-c2ccc(F)c(F)c2)ccc1-c1nnc2n1CCSC(C)(CO)C2 (stereo not shown) [Example 31, [3-(3′,4′-Difluoro-3-methoxybiphenyl-4-yl)-8-methyl-5,6,8,9-tetrahydro[1,2,4]triazolo[4,3-d][1,4]thiazepin-8-yl]methanol] | 183 to 185 |
| CC1(CO)Cc2nnc(-c3ccc(-c4ccncc4)cc3Cl)n2CCS1 (stereo not shown) [Example 36, {3-[2-Chloro-4-(pyridin-4-yl)phenyl]-8-methyl-5,6,8,9-tetrahydro[1,2,4]triazolo[4,3-d][1,4]thiazepin-8-yl}methanol] | 229 to 233 |
| CC1(CO)Cc2nnc(-c3ccc(-n4cccc4)cc3Cl)n2CCS1 (stereo not shown) [Example 40, {3-[2-Chloro-4-(1H-pyrrol-1-yl)phenyl]-8-methyl-5,6,8,9-tetrahydro[1,2,4]triazolo[4,3-d][1,4]thiazepin-8-yl}methanol] | 110 to 112 |

| SMILES | melting point [°C] |
| --- | --- |
| COc1ccc(-c2ccc(-c3nnc4n3CCSC(C)(CO)C4)c(Cl)c2)cc1 (stereo not shown) [Example 21, [3-(3-Chloro-4′-methoxybiphenyl-4-yl)-8-methyl-5,6,8,9-tetrahydro[1,2,4]triazolo[4,3-d][1,4]thiazepin-8-yl]methanol] | 179 to 182 |
| CC1(C)Cc2nnc(-c3ccccc3Cl)n2CCS1 [Example 45, 3-(2-Chlorophenyl)-8,8-dimethyl-5,6,8,9-tetrahydro[1,2,4]triazolo[4,3-d][1,4]thiazepine] | 183 to 185 |
| COc1cc(-c2cccc(C#N)c2)ccc1-c1nnc2n1CCSC(C)(CO)C2 (stereo not shown) [Example 25, 4′-[8-(Hydroxymethyl)-8-methyl-5,6,8,9-tetrahydro[1,2,4]triazolo[4,3-d][1,4]thiazepin-3-yl]-3′-methoxybiphenyl-3-carbonitrile] | 232 to 236 |
| CC1(CO)Cc2nnc(-c3cccc(-c4ccc(F)cc4)c3Cl)n2CCS1 (stereo not shown) [Example 33, [3-(2-Chloro-4′-fluorobiphenyl-3-yl)-8-methyl-5,6,8,9-tetrahydro[1,2,4]triazolo[4,3-d][1,4]thiazepin-8-yl]methanol] | 192 to 195 |
| CC1(CO)Cc2nnc(-c3ccc(-c4ccc(F)cc4)cc3Cl)n2CCS1 (single isomer, unassigned; (-)) [Example 56, (−)-[3-(3-chloro-4′-fluorobiphenyl-4-yl)-8-methyl-5,6,8,9-tetrahydro[1,2,4]triazolo[4,3-d][1,4]thiazepin-8-yl]methanol] | 212 to 215 |
| COc1cccc(-c2ccc(-c3nnc4n3CCSC(C)(CO)C4)c(Cl)c2)c1 (stereo not shown) [Example 18, [3-(3-Chloro-3′-methoxybiphenyl-4-yl)-8-methyl-5,6,8,9-tetrahydro[1,2,4]triazolo[4,3-d][1,4]thiazepin-8-yl]methanol] | 181 to 184 |
| CC1(CO)Cc2nnc(-c3ccc(N4CCOCC4)cc3Cl)n2CCS1 (stereo not shown) [Example 37, {3-[2-Chloro-4-(morpholin-4-yl)phenyl]-8-methyl-5,6,8,9-tetrahydro[1,2,4]triazolo[4,3-d][1,4]thiazepin-8-yl}methanol] | 191 to 193 |
| CC1(CO)Cc2nnc(-c3ccc(-c4cccc(Cl)c4)cc3F)n2CCS1 (stereo not shown) [Example 11, [3-(3′-Chloro-3-fluorobiphenyl-4-yl)-8-methyl-5,6,8,9-tetrahydro[1,2,4]triazolo[4,3-d][1,4]thiazepin-8-yl]methanol] | 165 to 168 |
| COc1cc(-c2cccc(NS(C)(=O)=O)c2)ccc1-c1nnc2n1CCSC(C)(CO)C2 (stereo not shown) [Example 55, N-{4′-[8-(Hydroxymethyl)-8-methyl-5,6,8,9-tetrahydro[1,2,4]triazolo[4,3-d][1,4]thiazepin-3-yl]-3′-methoxybiphenyl-3-yl}methanesulfonamide] | 250 to 252 |
| CC1(C)Cc2nnc(-c3ccc(F)cc3Cl)n2CCS1 [Example 50, 3-(2-Chloro-4-fluorophenyl)-8,8-dimethyl-5,6,8,9-tetrahydro[1,2,4]triazolo[4,3-d][1,4]thiazepine] | 177 to 182 |
| CC1(CO)Cc2nnc(-c3ccc(-c4ccccc4Cl)cc3Cl)n2CCS1 (stereo not shown) [Example 14, [3-(3,2′-Dichlorobiphenyl-4-yl)-8-methyl-5,6,8,9-tetrahydro[1,2,4]triazolo[4,3-d][1,4]thiazepin-8-yl]methanol] | 177 to 180 |
| COc1cc(-c2ccc(F)cc2)ccc1-c1nnc2n1CCSC(C)(CO)C2 (stereo not shown) [Example 10, [3-(4′-Fluoro-3-methoxybiphenyl-4-yl)-8-methyl-5,6,8,9-tetrahydro[1,2,4]triazolo[4,3-d][1,4]thiazepin-8-yl]methanol] | 212 to 215 |
| COc1cc(-c2cccc(Cl)c2)ccc1-c1nnc2n1CCSC(C)(CO)C2 (stereo not shown) [Example 24, [3-(3′-Chloro-3-methoxybiphenyl-4-yl)-8-methyl-5,6,8,9-tetrahydro[1,2,4]triazolo[4,3-d][1,4]thiazepin-8-yl]methanol] | 173 to 176 |
| CC1(CO)Cc2nnc(-c3ccc(-c4cccnc4)cc3Cl)n2CCS1 (stereo not shown) [Example 35, {3-[2-Chloro-4-(pyridin-3-yl)phenyl]-8-methyl-5,6,8,9-tetrahydro[1,2,4]triazolo[4,3-d][1,4]thiazepin-8-yl}methanol] | 206 to 209 |
| CC1(CO)Cc2nnc(-c3cccc4c3ccn4-c3ccc(F)cc3)n2CCS1 (stereo not shown) [Example 43, {3-[1-(4-Fluorophenyl)-1H-indol-4-yl]-8-methyl-5,6,8,9-tetrahydro[1,2,4]triazolo[4,3-d][1,4]thiazepin-8-yl}methanol] | 117 to 120 |
| CC1(CO)Cc2nnc(-c3ccc(-c4ccccc4)cc3Cl)n2CCS1 (stereo not shown) [Example 9, [3-(3-Chlorobiphenyl-4-yl)-8-methyl-5,6,8,9-tetrahydro[1,2,4]triazolo[4,3-d][1,4]thiazepin-8-yl]methanol] | 166 to 169 |
| CC1(CO)Cc2nnc(-c3ccc(N4CCCCC4)cc3Cl)n2CCS1 (stereo not shown) [Example 38, {3-[2-Chloro-4-(piperidin-1-yl)phenyl]-8-methyl-5,6,8,9-tetrahydro[1,2,4]triazolo[4,3-d][1,4]thiazepin-8-yl}methanol] | 195 to 198 |
